In US20220007644A1, “COMPOSITIONS COMPRISING PYRIDINE CARBOXYLATE HERBICIDES WITH PHOTOSYSTEM II AND OPTIONAL HPPD INHIBITOR HERBICIDES” (Corteva Agriscience LLC, priority 2018, published 2022):

Key:
Format in all cases: in vivo
Conditions in all cases: 140 g ai/ha alone
[1] = test system: ABUTH, Abutilon theophrasti (velvetleaf); test: Greenhouse postemergence herbicidal effect (visual injury, 20-22 d)
From the text: (§1) Greenhouse Trial Methodology—Evaluation of Postemergence Herbicidal Effect
(§2) Seeds of the desired test plant species were planted in a 90:10% v/v (volume/volume) mixture of PRO-MIX® BX (Premier Tech Horticulture, Quakertown, Pa., USA) and PROFILE®GREENS GRADE™ (Profile Products LLC, Buffalo Grove, Ill., USA) planting mixture, which typically has a pH of 5.2 to 6.2 and an organic matter content of at least 50 percent, in plastic pots with a surface area of 103.2 square centimeters (cm^2). In some aspects, to help ensure good germination and healthy plants, a fungicide treatment and/or other chemical or physical treatment was applied. The plants were grown for 7-36 days (d) in a greenhouse with an approximate 14-hour (h) photoperiod which was maintained at about 23° C. during the day and 22° C. during the night. Nutrients and water were added on a regular basis and supplemental lighting was provided with overhead metal halide 1000-Watt lamps as necessary. The plants were employed for testing when they reached the second or third true leaf stage.
(§3) Emulsifiable concentrates of each of each pyridine carboxylate herbicide (Compound A or Compound B) were prepared at 100 grams acid equivalent per liter (g ae/L). The emulsifiable concentrates also included a safener, cloquintocet-mexyl, at 120 grams active ingredient per liter (g ai/L), unless otherwise noted below. An aliquot of each emulsifiable concentrate was placed in a 25 mL glass vial and diluted with an aqueous mixture of 1.25% (v/v) ACTIROB® B esterified rapeseed oil (Bayer Crop Science, Research Triangle Park, N.C., USA) or MSO® Concentrate with LECI-TECH® methylated soybean oil (Loveland Products, Loveland, Colo., USA) to obtain concentrated stock solutions at the highest application rate for each herbicide, based upon a 12 milliliter (mL) application volume at a rate of 187 liters per hectare (L/ha). The concentrated stock solutions were further diluted with an aqueous mixture of 1.25% v/v ACTIROB® B or MSO® Concentrate with LECI-TECH® to obtain stock solutions at reduced application rates for each herbicide. Spray solutions of the herbicide combinations (Compound A or Compound B plus PS-II herbicide and optional HPPD herbicide) were prepared by adding weighed amounts or aliquots of the PS-II herbicide and optional HPPD herbicide to the stock solutions of Compound A or Compound B to form 12-mL spray solutions in two- or three-way combinations.
(§4) The spray solutions were applied to the plant material with an overhead Mandel track sprayer equipped with 8002E nozzles calibrated to deliver 187 L/ha over an application area of 0.503 square meters (m^2) at a spray height of 18 inches ([…] centimeters (cm)) above the average plant canopy. Control plants were sprayed in the same manner with the solvent blank. All pyridine carboxylate herbicide (component a) application rates are given as “g ae/ha” and all PS II inhibitor herbicide (component b) and HPPD inhibitor herbicide (component c) application rates are given as “g ai/ha.”
(§5) The treated plants and control plants were placed in a greenhouse as described above and watered by sub-irrigation to prevent wash-off of the test compounds. After 20-22 d, the condition of the test plants as compared with that of the control plants was determined visually and scored on a scale of 0 to 100 percent where 0 corresponds to no injury and 100 corresponds to complete kill.

[2] = test system: AMARE, Amaranthus retroflexus (pigweed); test: as above
From the text: as §1, §2, §3, §4, §5

[3] = test system: BRSNN, Brassica napus (spring rape); test: as above
From the text: as §1, §2, §3, §4, §5

[4] = test system: BRSNW, Brassica napus (winter rape); test: as above
From the text: as §1, §2, §3, §4, §5

[5] = test system: CHEAL, Chenopodium album L. (common lambsquarters); test: as above
From the text: as §1, §2, §3, §4, §5

[6] = test system: CIRAR, Cirsium arvense (Canada thistle); test: as above
From the text: as §1, §2, §3, §4, §5

[7] = test system: EPHHL, Euphorbia heterophylla (poinsettia); test: as above
From the text: as §1, §2, §3, §4, §5

[8] = test system: KCHSC, Kochia scoparia (kochia); test: as above
From the text: as §1, §2, §3, §4, §5

[9] = test system: MATCH, Matricaria chamomilla (wild chamomile); test: as above
From the text: as §1, §2, §3, §4, §5

[10] = test system: POLCO, Polygonum convolvulus (wild buckwheat); test: as above
From the text: as §1, §2, §3, §4, §5

[11] = test system: SASKR, Salsola kali (Russian thistle); test: as above
From the text: as §1, §2, §3, §4, §5

[12] = test system: SETFA, Setaria faberi (giant foxtail); test: as above
From the text: as §1, §2, §3, §4, §5

[13] = test system: SINAR, Sinapis arvensis (wild mustard); test: as above
From the text: as §1, §2, §3, §4, §5

[14] = test system: STEME, Stellaria media (chickweed); test: as above
From the text: as §1, §2, §3, §4, §5

[15] = test system: VIOTR, Viola tricolor (wild pansy); test: as above
From the text: as §1, §2, §3, §4, §5

[16] = test system: HORVS, Hordeum vulgare (spring barley); test: Greenhouse postemergence phytotoxicity on crop (visual injury, 20-22 d)
From the text: as §1, §2, §3, §4, §5

[17] = test system: TRZAS, Triticum aestivum (spring wheat); test: as above
From the text: as §1, §2, §3, §4, §5

`N#Cc1cc(Br)c(O)c(Br)c1` [Bromoxynil, 3,5-dibromo-4-hydroxbenzonitrile, reference compound] was tested, and the “visual injury Obs” value [1] was 30%, the visual injury [2] was 5% and the “visual injury Obs” value [3] was 3%. For the same compound, the visual injury [4] was 10%, the visual injury [5] was 0% and the “visual injury Obs” value [5] was 48%. The visual injury [6] was 45%, the “visual injury Obs” value [6] was 60% and the “visual injury Obs” value [7] was 30%. The visual injury [8] was 38%, the “visual injury Obs” value [8] was 35% and the visual injury [9] was 5%. The visual injury [10] was 100%, the pest or weed control at 140 g/ha ([10]; Fallopia convolvulus, post-emergence, read-out: visual injury Obs) was 55% and the visual injury [11] was 75%. The “visual injury Obs” value [12] was 0%, the visual injury [13] was 10% and the “visual injury Obs” value [14] was 0%. For the same compound, the “visual injury Obs” value [15] was 0%, the visual injury [16] was 0% and the visual injury [17] was 0%.
